Measured values: patent publication US20110160167A1, “Steroid Derivatives Acting As Glucocorticosteroid Receptor Agonists” (AstraZeneca AB, priority 2007, published 2011)

Molecular target: T1, recombinant human GR (Homo sapiens, UniProt P04150)
T1 construct: purchased Panvera/Invitrogen P2812 (kit P2893)
T1 sequence (P04150 1-777): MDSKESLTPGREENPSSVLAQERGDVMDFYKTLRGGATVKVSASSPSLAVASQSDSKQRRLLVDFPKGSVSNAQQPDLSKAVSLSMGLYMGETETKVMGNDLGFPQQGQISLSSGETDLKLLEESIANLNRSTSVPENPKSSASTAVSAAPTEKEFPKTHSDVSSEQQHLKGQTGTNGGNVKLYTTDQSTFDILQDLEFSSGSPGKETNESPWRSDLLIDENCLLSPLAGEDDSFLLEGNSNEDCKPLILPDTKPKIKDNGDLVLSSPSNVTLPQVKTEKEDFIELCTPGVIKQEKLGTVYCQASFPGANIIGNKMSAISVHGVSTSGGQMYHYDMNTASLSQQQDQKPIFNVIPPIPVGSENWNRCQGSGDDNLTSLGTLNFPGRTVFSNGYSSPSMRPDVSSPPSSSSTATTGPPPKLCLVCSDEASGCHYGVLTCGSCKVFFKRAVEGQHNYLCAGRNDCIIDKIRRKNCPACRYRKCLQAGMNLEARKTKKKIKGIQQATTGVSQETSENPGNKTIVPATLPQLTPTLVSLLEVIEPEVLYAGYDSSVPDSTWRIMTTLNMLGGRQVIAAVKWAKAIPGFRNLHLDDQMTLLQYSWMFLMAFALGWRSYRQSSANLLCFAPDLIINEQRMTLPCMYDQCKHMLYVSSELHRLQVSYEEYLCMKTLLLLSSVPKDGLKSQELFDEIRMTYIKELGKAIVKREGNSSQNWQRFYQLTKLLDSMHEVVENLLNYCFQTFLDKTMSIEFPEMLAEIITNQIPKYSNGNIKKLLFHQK
Assay: Human Glucocorticoid Receptor (GR) Assay (fluorescence polarization, Panvera/Invitrogen kit)
Details: GS Red tracer, 2 hours at room temperature, 100% control 10 μM Dexamethasone, read-out: Inhibition of GR binding, IC50
Procedure: Human Glucocorticoid Receptor (GR) Assay The assay is based on a commercial kit from Panvera/Invitrogen (Part number P2893). The assay technology is fluorescence polarization. The kit utilises recombinant human GR (Panvera, Part number P2812), a Fluoromone™ labelled tracer (GS Red, Panvera, Part number P2894) and a Stabilizing Peptide 10× (Panvera, Part number P2815). The GR and Stabilizing Peptide reagents are stored at −70° C. while the GS Red is stored at −20° C. Also included in the kit are 1M DTT (Panvera, Part number P2325, stored at −20° C.) and GR Screening buffer 10× (Panvera, Part number P2814, stored at −70° C. initially but once thawed stored at room temperature). Avoid repeated freeze/thaws for all reagents. The GR Screening buffer 10× comprises 100 mM potassium phosphate, 200 mM sodium molybdate, 1 mM EDTA and 20% DMSO. Test compounds (1 μL) and controls (1 μL) in 100% DMSO were added to black polystyrene 384-well plates (Greiner low volume black flat-bottom, part number 784076). 0% control was 100% DMSO and 100% control was 10 μM Dexamethasone. Background solution (8 μL; assay buffer 10×, Stabilizing Peptide, DTT and ice cold MQ water) was added to the background wells. GS Red solution (7 μL; assay buffer 10×, Stabilizing Peptide, DTT, GS Red and ice cold water) was added to all wells except background wells. GR solution (7 μL; assay buffer 10×, Stabilizing Peptide, DTT, GR and ice cold water) was added to all wells. The plate was sealed and incubated in a dark at room temperature for 2 hours. The plate was read in an Analyst plate reader (LJL Biosystems/Molecular Devices Corporation) or other similar plate reader capable of recording fluorescence polarization (excitation wavelength 530 nm, emission wavelength 590 nm and a dichroic mirror at 561 nm).

Row | SMILES | IC50 [nM]
1 | CCC[C@@H]1O[C@@H]2C[C@H]3[C@@H]4CCC5=Cc6c(cnn6-c6ccc(F)c(CN7CCC(O)CC7)c6)C[C@]5(C)[C@H]4[C@@H](O)C[C@]3(C)[C@]2(C(=O)CO)O1 [Example 9, 1-[(4aR,4bS,5S,6aS,6bS, 8R,9aR,10aS,10bS)-1-{4-fluoro-3-[(4-hydroxypiperidin-1-yl)methyl]phenyl}-5-hydroxy-4a,6a-dimethyl-8-propyl-4,4a,4b,5,6,6a,9a,10, 10a,10b,11,12-dodecahydro[1,3]dioxolo [3′,4′]cyclopenta [1′,2′:5,6]naphtho[1,2-f]indazol-6b(1H)-yl]-2-hydroxyethanone trifluoroacetic acid] | 21
2 | CCC[C@@H]1OC2C[C@H]3[C@@H]4CCC5=Cc6c(cnn6-c6ccc(F)c(CN(CC)CC)c6)C[C@]5(C)[C@H]4[C@@H](O)C[C@]3(C)[C@]2(C(=O)CO)O1 (stereo partly drawn) [Example 6, 1-[(4aR,4bS,5S,6aS,6bS, 8R,9aR,10aS,10bS)-1-{3-[(diethylamino)methyl]-4-fluorophenyl}-5-hydroxy-4a,6a-dimethyl-8-propyl-4,4a,4b,5,6,6a,9a,10, 10a,10b,11,12-dodecahydro[1,3]dioxolo [3′,4′]cyclopenta [1′,2′:5,6]naphtho[1,2-f]indazol-6b(1H)-yl]-2-hydroxyethanone] | 72
